Type in all cases: in vivo
The subject of experiment [1] is cocklebur (Xanthium pensylvanicum). As to the kind of experiment: Preemergence herbicidal activity, cocklebur. The conditions noted are these: 2 lb/A; for pest or weed control at 2241.7 g/ha: Xanthium strumarium, pre-emergence, 336 h; for % control, Cocklebur: Pre. As for the experimental part:
(§1) Using the procedure described below, compounds of the invention are evaluated for control of several of the following plant species:
(§2) The following est procedure is employed. Seeds of selected crops and weeds are planted in soil in flats. For preemergence tests, the flats are treated with the test compound immediately after the planting. For postemergence tests, the seeds are allowed to germinate, and after two weeks the flats are treated with the test compound. The compound to be evaluated is dissolved in acetone, diluted with water, and sprayed over the flats using a carrier volume equivalent to 50 gallons per acre at the rate of application (pounds per acre, lb/A.) specified in the tables. About two weeks after the application of the test compound, the state of growth of the plants is observed and the phytotoxic effect of the compound is evaluated. Tables III and IV give the average percent control achieved by test compounds in terms of the percent of the plants which are killed by the compounds.

Experiment [2] deals with marigold (Tagetes spp.). The experiment is described as follows: Preemergence herbicidal activity, marigold. The conditions noted are these: 2 lb/A; for pest or weed control at 2241.7 g/ha: pre-emergence, 336 h; for % control, Marigold: Pre. The method, then: as §1, §2
Experiment [3] concerns morningglory (Ipomoca spp.). The experiment is described as follows: Preemergence herbicidal activity, morningglory. The conditions noted are these: 2 lb/A; for pest or weed control at 2241.7 g/ha: Ipomoea, pre-emergence, 336 h; for % control, Morningglory: Pre. The method, then: as §1, §2
Experiment [4] has as its system tomato (Lycopersicon esculentum). As to the kind of experiment: Preemergence herbicidal activity, tomato. The conditions noted are these: Pre, 2 lb/A; for pest or weed control at 2241.7 g/ha: Solanum lycopersicum, pre-emergence, 336 h. As for the experimental part: as §1, §2
Experiment [5] deals with velvetleaf (Abutilon theophrasti). The experiment is described as follows: Preemergence herbicidal activity, velvetleaf. The conditions noted are these: Pre, 2 lb/A; for pest or weed control at 2241.7 g/ha: Abutilon theophrasti, pre-emergence, 336 h. The method, then:
as §1, §2

Experiment [6] has as its system barnyardgrass (Echinochloa crusgalli). The experiment is described as follows: Preemergence herbicidal activity, barnyardgrass. The conditions noted are these: Pre, 2 lb/A; for pest or weed control at 2241.7 g/ha: Echinochloa crus-galli, pre-emergence, 336 h. The method, then: as §1
(§3) The following est procedure is employed. Seeds of selected crops and weeds are planted in soil in flats. For preemergence tests, the flats are treated with the test compound immediately after the planting. For postemergence tests, the seeds are allowed to germinate, and after two weeks the flats are treated with the test compound. The compound to be evaluated is dissolved in acetone, diluted with water, and sprayed over the flats using a carrier volume equivalent to 50 gallons per acre at the rate of application (pounds per acre, lb/A.) specified in the tables.

Experiment [7] has as its system downybrome (Bromus tectorum). As to the kind of experiment: Preemergence herbicidal activity, downybrome. The conditions noted are these: Pre, 2 lb/A; for pest or weed control at 2241.7 g/ha: Bromus tectorum, pre-emergence, 336 h. As for the experimental part: as §1, §2
The test system of experiment [8] is foxtail (Setaria spp.). As to the kind of experiment: Preemergence herbicidal activity, foxtail. The conditions noted are these: Pre, 2 lb/A; for pest or weed control at 2241.7 g/ha: Setaria, pre-emergence, 336 h. The method, then:
as §1, §2

Experiment [9] concerns yellow nutsedge (Cyperus esculentus). The experiment is described as follows: Preemergence herbicidal activity, yellow nutsedge. The conditions noted are these: 2 lb/A; for pest or weed control at 2241.7 g/ha: Cyperus, pre-emergence, 336 h; for % control, Nutsedge: Pre. The method, then: as §1, §2
Experiment [10] relates to wild oats (Avena fatua). As to the kind of experiment: Preemergence herbicidal activity, wild oats. The conditions noted are these: Pre, 2 lb/A; for pest or weed control at 2241.7 g/ha: Avena fatua, pre-emergence, 336 h, read-out: % control, Wild oat. The method, then:
as §1, §2

Experiment [11] concerns cocklebur (Xanthium pensylvanicum). As to the kind of experiment: Postemergence herbicidal activity, cocklebur. The conditions noted are these: 2 lb/A; for pest or weed control at 2241.7 g/ha: Xanthium strumarium, post-emergence, 336 h; for % control, Cocklebur: Post. The method, then:
as §1, §2

Experiment [12] relates to marigold (Tagetes spp.). As to the kind of experiment: Postemergence herbicidal activity, marigold. The conditions noted are these: 2 lb/A; for pest or weed control at 2241.7 g/ha: post-emergence, 336 h; for % control, Marigold: Post. As for the experimental part: as §1, §2
The test system of experiment [13] is morningglory (Ipomoca spp.). As to the kind of experiment: Postemergence herbicidal activity, morningglory. The conditions noted are these: 2 lb/A; for pest or weed control at 2241.7 g/ha: Ipomoea, post-emergence, 336 h; for % control, Morningglory: Post. The method, then: as §1, §2
The subject of experiment [14] is tomato (Lycopersicon esculentum). As to the kind of experiment: Postemergence herbicidal activity, tomato. The conditions noted are these: Post, 2 lb/A; for pest or weed control at 2241.7 g/ha: Solanum lycopersicum, post-emergence, 336 h. As for the experimental part: as §1, §2
Experiment [15] concerns velvetleaf (Abutilon theophrasti). The experiment is described as follows: Postemergence herbicidal activity, velvetleaf. The conditions noted are these: 2 lb/A; for pest or weed control at 2241.7 g/ha: Abutilon theophrasti, post-emergence, 336 h; for % control, Velvetleaf: Post. As for the experimental part:
as §1, §3

Experiment [16] relates to barnyardgrass (Echinochloa crusgalli). As to the kind of experiment: Postemergence herbicidal activity, barnyardgrass. The conditions noted are these: Post, 2 lb/A; for pest or weed control at 2241.7 g/ha: Echinochloa crus-galli, post-emergence, 336 h. The method, then: as §1, §3
Experiment [17] deals with downybrome (Bromus tectorum). As to the kind of experiment: Postemergence herbicidal activity, downybrome. The conditions noted are these: Post, 2 lb/A; for pest or weed control at 2241.7 g/ha: Bromus tectorum, post-emergence, 336 h. The method, then:
as §1, §2

Experiment [18] concerns foxtail (Setaria spp.). The experiment is described as follows: Postemergence herbicidal activity, foxtail. The conditions noted are these: Post, 2 lb/A; for pest or weed control at 2241.7 g/ha: Setaria, post-emergence, 336 h. The method, then: as §1, §2
In experiment [19] the test system is yellow nutsedge (Cyperus esculentus). As to the kind of experiment: Postemergence herbicidal activity, yellow nutsedge. The conditions noted are these: 2 lb/A; for pest or weed control at 2241.7 g/ha: Cyperus, post-emergence, 336 h; for % control, Nutsedge: Post. The method, then:
as §1, §2

In experiment [20] the test system is wild oats (Avena fatua). As to the kind of experiment: Postemergence herbicidal activity, wild oats. The conditions noted are these: Post, 2 lb/A; for pest or weed control at 2241.7 g/ha: Avena fatua, post-emergence, 336 h, read-out: % control, Wild oat. The method, then: as §1, §2

For `CCOC(=O)C(C)Oc1ccc(Oc2ccc(C(F)(F)F)cc2Cl)cc1OC` (stereo not drawn) [Example 8, Ethyl 2-[4-(2-chloro-4-trifluoromethylphenoxy)-2-methoxyphenoxy] propionate], the pest or weed control at 2241.7 g/ha in [1], in experiment [2], in experiment [3], in experiment [4], in experiment [5] and in experiment [6] was 0% throughout. The pest or weed control at 2241.7 g/ha in experiment [7] was 0%; in experiment [8] it was 99%; in experiment [9], 0%; in experiment [10], 0%; in experiment [11], 0%; in experiment [12], 0%. In addition, the pest or weed control at 2241.7 g/ha in experiment [13], in [14], in experiment [15], in [16], in experiment [17] and in experiment [18] was 0% in each case. The pest or weed control at 2241.7 g/ha in experiment [19] and in experiment [20] was 0% each time.
For `CCOC(=O)C(C)Oc1ccc(Oc2ccc(C(F)(F)F)cc2Cl)cc1[N+](=O)[O-]` (stereo not drawn) [Example 9], the pest or weed control at 2241.7 g/ha in [1], in experiment [2], in experiment [3], in experiment [4], in [5] and in experiment [6] was 0% throughout. Further, the pest or weed control at 2241.7 g/ha is 0% in [7]; 0% in [8]; 0% in experiment [9]; 0% in experiment [10]; 40% in experiment [11]; 50% in experiment [12]. Moreover, the pest or weed control at 2241.7 g/ha in experiment [13] was found to be 0%; in experiment [14] it was 90%; in experiment [15], 20%; in [16] it was 40%; in [17], 0%; in experiment [18], 0%. In addition, the pest or weed control at 2241.7 g/ha in experiment [19] and in experiment [20] was 0% in each case.
With `CCOC(=O)C(C)Oc1ccc(Oc2ccc(C(F)(F)F)cc2Cl)cc1C` (stereo not drawn) [Example 10], the pest or weed control at 2241.7 g/ha in experiment [1], in [2], in [3], in [4], in experiment [5] and in [6] was 0% each time. In addition, the pest or weed control at 2241.7 g/ha in [7] was determined as 0%; in experiment [8] it was 0%; in experiment [9], 0%; in experiment [10], 0%; in experiment [11], 40%; in experiment [12], 0%. Besides, the pest or weed control at 2241.7 g/ha in experiment [13] stood at 80%; in experiment [14], 30%; in [15] it was 40%; in experiment [16] it was 0%; in [17] it was 0%; in experiment [18], 0%. Moreover, the pest or weed control at 2241.7 g/ha in experiment [19] and in experiment [20] was 0% throughout.
In the case of `CCOC(=O)COc1ccc(Oc2ccc(C(F)(F)F)cc2Cl)cc1` [Example 11], the pest or weed control at 2241.7 g/ha in experiment [1], in experiment [2], in experiment [3], in experiment [4], in experiment [5] and in experiment [6] was 0% throughout. For the same compound, the pest or weed control at 2241.7 g/ha in experiment [7] was determined as 0%; in experiment [8], 30%; in experiment [9], 0%; in [10] it was 0%; in experiment [11] it was 50%; in [12] it was 0%. Moreover, the pest or weed control at 2241.7 g/ha was 30% in [13]; 0% in [14]; 20% in [15]; 20% in experiment [16]; 0% in [17]; 30% in experiment [18]. The figures for the pest or weed control at 2241.7 g/ha in experiment [19] and in experiment [20] were 0% and 40%, respectively.
Regarding `CC(Oc1ccc(Oc2ccc(C(F)(F)F)cc2Cl)cc1)C(=O)O` (stereo not drawn) [Example 12], the “% control, Cocklebur” value in experiment [1] and in [11] was 0% each time. Also, the “% control, Marigold” value in [2] and in experiment [12] was 0% throughout. Also, the “% control, Morningglory” value in experiment [3] and in experiment [13] was 0% each time. For the same compound, the “% control, Tomato” value in experiment [4] and in experiment [14] was 0% each time. Further, the “% control, Velvetleaf” value in experiment [5] and in [15] was 0% throughout. The “% control, Barnyardgrass” value in experiment [6] and in experiment [16] was 100% each time. The “% control, Downybrome” value in experiment [7] turned out to be 0%; in experiment [17], 60%. For the same compound, the “% control, Foxtail” value in [8] and in experiment [18] was 100% each time. Moreover, the “% control, Nutsedge” value in experiment [9] and in experiment [19] was 0% throughout. Moreover, the “% control, Wild oat” value came to 60% in experiment [10] and 70% in experiment [20].
As for `CC(Oc1ccc(Oc2ccc(C(F)(F)F)cc2Cl)cc1)C(=O)O` (stereo not drawn) [Example 13], the “% control, Cocklebur” value in [1] and in experiment [11] was 0% throughout. For the same compound, the “% control, Marigold” value in [2] and in [12] was 0% throughout. The “% control, Morningglory” value in experiment [3] and in [13] was 0% in each case. In addition, the “% control, Tomato” value in experiment [4] and in [14] was 0% each time. Further, the “% control, Velvetleaf” value in [5] and in [15] was 0% throughout. Also, the “% control, Barnyardgrass” value in experiment [6] and in experiment [16] was 100% in each case. For the same compound, the “% control, Downybrome” value in [7] is 70%; in experiment [17], 20%. The “% control, Foxtail” value was determined as 100% in [8] and 90% in experiment [18]. For the same compound, the “% control, Nutsedge” value in experiment [9] and in experiment [19] was 0% in each case. Moreover, the “% control, Wild oat” value in experiment [10] is recorded as 70%; in [20] it was 60%.

Values taken from patent US4335249A, “Herbicidal diphenyl ethers, sulfides, sulfoxides and sulfones” (Rohm and Haas Company, priority 1976, dated 1982).
